MIC data for 5 compounds are collected here from patent EP0203488A2, “7-Azolyl-1-cyclopropyl-1,4-dihydro-4-oxo-3-quinoline carboxylic acids and 1,8-naphthyridine carboxylic acids, process for their preparation and bactericidal agents containing them” (BAYER AG, priority 1985, dated 1986).

≈ marks a conversion by molar mass, not a printed value.

Assay in all cases: Agar dilution test (Isosensitest medium), MIC
Holding throughout (assay type): cell-based

The subject of one assay is E.coli Neum. The conditions noted are these: Escherichia coli, Agardilutionstest / Isosensitestmedium, read-out: MHK-Werte. The text has this:
(§1) In der nachstehenden Tabelle sind die MHK-Werte einiger der erfindungsgemäßen Verbindungen im Vergleich zu Ciprofloxacin angegeben.

In another assay the test system is E.coli T 7. The conditions noted are these: Escherichia coli, T7, Agardilutionstest / Isosensitestmedium, read-out: MHK-Werte.
Source text: as §1

A further assay has as its system Klebsiella pneum. 63. The conditions noted are these: Agardilutionstest / Isosensitestmedium, read-out: MHK-Werte.
Source text: as §1

The subject of the next assay is Klebsiella pneum. 8085. The conditions noted are these: Agardilutionstest / Isosensitestmedium, read-out: MHK-Werte.
Source text: as §1

The test system of the next assay is Proteus vulg. 1017. The conditions noted are these: Agardilutionstest / Isosensitestmedium, read-out: MHK-Werte.
Source text: as §1

The test system of another assay is Pseudom.aerug.Ellsw. The conditions noted are these: Agardilutionstest / Isosensitestmedium, read-out: MHK-Werte.
Source text: as §1

A further assay has as its system Staph. aur. 133. The conditions noted are these: Agardilutionstest / Isosensitestmedium, read-out: MHK-Werte.
Source text: as §1

The subject of a further assay is Staph. aur. 1756. The conditions noted are these: Agardilutionstest / Isosensitestmedium, read-out: MHK-Werte.
Source text: as §1

The subject of another assay is Staph. aur. FK 422. The conditions noted are these: Agardilutionstest / Isosensitestmedium, read-out: MHK-Werte.
Source text: as §1

Another assay deals with Streptococcus faec.27101. The conditions noted are these: Agardilutionstest / Isosensitestmedium, read-out: MHK-Werte.
Source text: as §1

Turning to `O=C(O)c1cn(C2CC2)c2cc(-n3cccc3)c(F)cc2c1=O` [Beispiel 1, 1-Cyclopropyl-6-fluor-1,4-dihydro-4-oxo-7-(1-pyrrolyl)-3-chino-lincarbonsäure], the MIC with E.coli Neum. was 0.06 µg/mL (≈ 0.192 µM); in the assay on E.coli T 7, 0.06 µg/mL (≈ 0.192 µM); with Klebsiella pneum. 63 it was 0.125 µg/mL (≈ 0.4 µM); with Klebsiella pneum. 8085, 0.06 µg/mL (≈ 0.192 µM); in the assay on Proteus vulg. 1017, 0.25 µg/mL (≈ 0.801 µM); with Pseudom.aerug.Ellsw., 0.5 µg/mL (≈ 1.6 µM). The MIC with Staph. aur. 133 worked out at 0.03 µg/mL (≈ 0.0961 µM); in the assay on Staph. aur. 1756 it was 0.03 µg/mL (≈ 0.0961 µM); with Staph. aur. FK 422 it was 0.03 µg/mL (≈ 0.0961 µM); in the assay with Streptococcus faec.27101 it was 0.25 µg/mL (≈ 0.801 µM).

For `O=C(O)c1cn(C2CC2)c2c(F)c(-n3cccc3)c(F)cc2c1=O` [Beispiel 2, 1-Cyclopropyl-6,8-difluor-1,4-dihydro-4-oxo-7-(1-pyrrolyl)-3-chinolincarbon-säure], the MIC with E.coli Neum. came out at 0.25 µg/mL (≈ 0.757 µM); in the assay with E.coli T 7, 0.125 µg/mL (≈ 0.378 µM); with Klebsiella pneum. 63, 0.5 µg/mL (≈ 1.51 µM); in the assay on Klebsiella pneum. 8085 it was 0.125 µg/mL (≈ 0.378 µM); with Proteus vulg. 1017 it was 0.5 µg/mL (≈ 1.51 µM); with Pseudom.aerug.Ellsw., 1 µg/mL (≈ 3.03 µM). Besides, the MIC in the assay with Staph. aur. 133 was 0.06 µg/mL (≈ 0.182 µM); in the assay with Staph. aur. 1756, 0.06 µg/mL (≈ 0.182 µM); in the assay with Staph. aur. FK 422 it was 0.06 µg/mL (≈ 0.182 µM); in the assay with Streptococcus faec.27101, 0.25 µg/mL (≈ 0.757 µM).

Take `O=C(O)c1cn(C2CC2)c2c(Cl)c(-n3ccnc3)c(F)cc2c1=O` [Beispiel 20, 8-Chlor-1-cyclopropyl-6-fluor-1,4-dihydro-7-(1-imidazolyl)-4-oxo-3-chinolincarbonsäure]: the MIC with E.coli Neum. came out at 0.03 µg/mL (≈ 0.0863 µM); in the assay on E.coli T 7 it was 0.03 µg/mL (≈ 0.0863 µM); in the assay with Klebsiella pneum. 63 it was 0.25 µg/mL (≈ 0.719 µM); in the assay with Klebsiella pneum. 8085, 0.03 µg/mL (≈ 0.0863 µM); in the assay with Proteus vulg. 1017, 0.25 µg/mL (≈ 0.719 µM); with Pseudom.aerug.Ellsw., 0.5 µg/mL (≈ 1.44 µM). For the same compound, the MIC worked out at 0.03 µg/mL (≈ 0.0863 µM) in the assay on Staph. aur. 133, 0.03 µg/mL (≈ 0.0863 µM) in the assay with Staph. aur. 1756, 0.03 µg/mL (≈ 0.0863 µM) with Staph. aur. FK 422 and 0.125 µg/mL (≈ 0.359 µM) in the assay with Streptococcus faec.27101.

For the compound `O=C(O)c1cn(C2CC2)c2c(F)c(-n3ccnc3)c(F)cc2c1=O` [Beispiel 21, 1-Cyclopropyl-6,8-difluor-1,4-dihydro-7-(1-imidazolyl)-4-oxo-3-chinolincarbonsäure], the MIC in the assay on E.coli Neum. was found to be 0.03 µg/mL (≈ 0.0906 µM); with E.coli T 7, 0.03 µg/mL (≈ 0.0906 µM); in the assay with Klebsiella pneum. 63, 0.06 µg/mL (≈ 0.181 µM); in the assay on Klebsiella pneum. 8085, 0.03 µg/mL (≈ 0.0906 µM); with Proteus vulg. 1017 it was 0.125 µg/mL (≈ 0.377 µM); with Pseudom.aerug.Ellsw., 0.25 µg/mL (≈ 0.755 µM). Besides, the MIC with Staph. aur. 133 stood at 0.125 µg/mL (≈ 0.377 µM); with Staph. aur. 1756 it was 0.125 µg/mL (≈ 0.377 µM); in the assay with Staph. aur. FK 422 it was 0.125 µg/mL (≈ 0.377 µM); in the assay with Streptococcus faec.27101 it was 0.5 µg/mL (≈ 1.51 µM).

`CCn1cc(C(=O)O)c(=O)c2cc(F)c(-n3ccnc3)c(F)c21` [EP 115 049, 1-Ethyl-6,8-difluor-1,4-dihydro-7-(1-imidazolyl)-4-oxo-3-chinolincarbonsäure, reference compound]: the MIC with E.coli Neum. amounted to 0.125 µg/mL (≈ 0.392 µM); in the assay with E.coli T 7 it was 0.125 µg/mL (≈ 0.392 µM); with Klebsiella pneum. 63, 0.5 µg/mL (≈ 1.57 µM); in the assay with Klebsiella pneum. 8085, 0.25 µg/mL (≈ 0.783 µM); with Proteus vulg. 1017, 0.5 µg/mL (≈ 1.57 µM); in the assay with Pseudom.aerug.Ellsw. it was 1 µg/mL (≈ 3.13 µM). Also, the MIC in the assay on Staph. aur. 133 came to 1 µg/mL (≈ 3.13 µM); in the assay on Staph. aur. 1756, 1 µg/mL (≈ 3.13 µM); in the assay with Staph. aur. FK 422, 0.5 µg/mL (≈ 1.57 µM); with Streptococcus faec.27101 it was 2 µg/mL (≈ 6.26 µM).
